Experimental data published in patent US11026426B2, “Oxadiazole and phenol derivatives as antibacterial and/or herbicidal agents” (NORTHERN ILLINOIS RESEARCH FOUNDATION, priority 2017, dated 2021).
Like-named read-outs stand apart in the source and are kept apart here.

Tests used:
[1] = biological target: AtIspD (Arabidopsis thaliana, UniProt P69834); experiment: University of Hamburg photometric enzymatic inhibition assay AtIspD; format: biochemical
Method: (§1) Compounds were subjected to a photometric enzymatic assay to test for inhibition of the plant enzymes Arabidopsis thaliana IspD and IspF, and IspE from Lycopersicon esculentum.
The procedure for AtIspD enzymatic inhibition assay, was performed by making an assay mixture of 100 mM Tris hydrochloride at pH 8.0 with 10 mM MgCl2, 1 mM dithiothreitol, 2.5 mM potassium phosphoenol pyruvate, 2.1 mM CTP, 2 mM ATP, 1 mM of (2R,3S)-2,3-dihydroxy-4-oxopentyl phosphate, 460 μM NADH, 1.1% (v/v) DMSO, 0.4 U IspE, 1 U lactate dehydrogenase, 1 U pyruvate kinase and 2.4 mU IspD in 180 μL of solution. Solutions were incubated at 27° C. and monitored photometrically. By preparing the assay mixture with a large excess of IspE compared to IspD, any inhibition of IspE by the test inhibitor would be insignificant compared to IspD and therefore the rate of the reaction is determined by IspD activity.

[2] = biological target: LeIspE (Solanum lycopersicum, UniProt P93841); experiment: University of Hamburg photometric enzymatic inhibition assay LeIspE; format: biochemical, Lycopersicon esculentum
Method: as §1
The IspE assay conditions were very similar to the IspD assay in which the assay mixture was composed of 100 mM Tris hydrochloride at pH 8.0 with 10 mM MgCl2, 1 mM dithiothreitol, 2.5 mM potassium phosphoenol pyruvate, 2 mM ATP, 1 mM of 4-Diphosphocytidyl-2-C-methylerythritol, 460 μM NADH, 1.1% (v/v) DMSO, 2.4 mU IspE, 1 U lactate dehydrogenase, 1 U pyruvate kinase in 180 μL of solution. Solutions were incubated at 27° C. and monitored photometrically.

[3] = biological target: AtIspF (Arabidopsis thaliana, UniProt Q9CAK8); experiment: University of Hamburg photometric enzymatic inhibition assay AtIspF; format: biochemical
Method: as §1
The IspF assay mixture conditions were as follows: 100 mM Tris hydrochloride at pH 8.0 with 10 mM MgCl2, 1 mM dithiothreitol, 2.5 mM potassium phosphoenol pyruvate, 2 mM ATP, 1 mM of 4-diphosphocytidyl-2C methylerythritol 2-phosphate, 460 μM NADH, 1.1% (v/v) DMSO, 0.5 U CMP kinase, 2.4 mU IspF, 1 U lactate dehydrogenase, 1 U pyruvate kinase in 180 μL of solution. Solutions were incubated at 27° C. and monitored photometrically.

[4] = test system: Burkholderia thailandensis; format: cell-based; conditions: preliminary screening, score 0-3
[5] = test system: Mycobacterium smegmatis; experiment: Antibacterial preliminary screening MS; format: cell-based; conditions: score 0-3; further: key: 0 represents no inhibition; 3 is comparable to commercial antibiotic control
[6] = test system: Corynebacterium xerosis; experiment: Antibacterial preliminary screening CX; format: cell-based; conditions: score 0-3; further: key: 0 represents no inhibition; 3 is comparable to commercial antibiotic control
[7] = test system: Corynebacterium pseudodiphtheriae; experiment: Antibacterial preliminary screening CP; format: cell-based; conditions: score 0-3;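 further: 0 is no inhibition and 3 matches the commercial antibiotic control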
[8] = test system: Escherichia coli; experiment: Antibacterial preliminary screening EC; format: cell-based; conditions: score 0-3; further: key: 0 represents no inhibition; 3 is comparable to commercial antibiotic control
[9] = test system: Klebsiella pneumonia; experiment: Antibacterial preliminary screening KP; format: cell-based; conditions: score 0-3; further: key: 0 represents no inhibition; 3 is comparable to commercial antibiotic control
[10] = test system: Micrococcus luteus; experiment: Antibacterial preliminary screening ML; format: cell-based; conditions: score 0-3
[11] = test system: Bacillus cereus; experiment: Antibacterial preliminary screening BC; format: cell-based; conditions: score 0-3
[12] = test system: Pseudomonas aeruginosa; experiment: Antibacterial preliminary screening PA; format: cell-based; conditions: score 0-3
[13] = biological target: T1, Mycobacterium tuberculosis IspD (MtIspD) (Mycobacterium tuberculosis, UniProt P9WKG9); experiment: Thermal shift assay against MtIspD; format: binding
T1 sequence (P9WKG9 1-231): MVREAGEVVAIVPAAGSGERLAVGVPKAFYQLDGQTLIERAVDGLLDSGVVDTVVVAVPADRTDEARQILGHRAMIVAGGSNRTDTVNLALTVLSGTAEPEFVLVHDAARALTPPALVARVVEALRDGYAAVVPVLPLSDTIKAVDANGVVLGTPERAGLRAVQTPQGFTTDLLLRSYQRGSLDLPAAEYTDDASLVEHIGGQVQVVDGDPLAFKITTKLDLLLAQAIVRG

[14] = biological target: Lycopersicon esculentum IspE (LeIspE) (Solanum lycopersicum, UniProt P93841); experiment: Thermal shift assay against LeIspE; format: binding
[15] = test system: lettuce seeds; experiment: Lettuce leaf assay; format: in vivo; design: key: 0 (no effect); 5(complete inhibition or bleaching); conditions: ranking 0-5
From the text: The lettuce leaf assay is a qualitative assay used to determine the relative effectiveness of the test compounds at inhibition of germination of seeds and root development as well as causing bleaching of leaves. Isoprenoid synthesis is vital in plants as isoprene-product gibberellins are a class of growth hormones in plants responsible for stimulating cell elongation and division. In addition, some carotenoids are involved in photosynthesis as components of the electron transport chain. MEP pathway inhibitors have the potential to prevent synthesis of these necessary cellular components and growth hormones resulting in inhibition of germination and root development as well as causing chlorosis, or bleaching in the leaves. The lettuce leaf assay, explores the effects of compounds as potential MEP pathway inhibitors by evaluating the effect on bleaching, root development, and germination of lettuce seeds, which all rely on isoprenoid biosynthesis. […] The assay is a qualitative assay and the effects are given rankings from 0 (no effect) to 5 (complete inhibition or bleaching). In this assay, compounds are dissolved in a volatile organic solvent and applied to filter paper in a petri dish. The solvent is allowed to evaporate and lettuce seeds are applied followed by the addition of 5 mL of water to obtain the necessary concentrations. Seeds are allowed to grow and they are observed on day 3 and day 4 for evaluation.

[16] = test system: Burkholderia thailandensis; format: cell-based
[17] = test system: Pseudomonas aeruginosa; experiment: Antibacterial assay zone of inhibition Pa; format: cell-based
[18] = test system: Micrococcus luteus; experiment: Antibacterial assay zone of inhibition Ml; format: cell-based
[19] = test system: Klebsiella pneumonia; experiment: Antibacterial assay zone of inhibition Kp; format: cell-based
[20] = test system: Escherichia coli; experiment: Antibacterial assay zone of inhibition Ec; format: cell-based
[21] = test system: Bacillus cereus; experiment: Antibacterial assay zone of inhibition Bc; format: cell-based
[22] = test system: Mycobacterium smegmatis; experiment: Antibacterial assay zone of inhibition Ms; format: cell-based
[23] = test system: Corynebacterium xerosis; experiment: Antibacterial assay zone of inhibition Cx; format: cell-based
[24] = test system: Corynebacterium pseudodiphtheriae; experiment: Antibacterial assay zone of inhibition Cp; format: cell-based

Chain of AtIspD (P69834 62-302): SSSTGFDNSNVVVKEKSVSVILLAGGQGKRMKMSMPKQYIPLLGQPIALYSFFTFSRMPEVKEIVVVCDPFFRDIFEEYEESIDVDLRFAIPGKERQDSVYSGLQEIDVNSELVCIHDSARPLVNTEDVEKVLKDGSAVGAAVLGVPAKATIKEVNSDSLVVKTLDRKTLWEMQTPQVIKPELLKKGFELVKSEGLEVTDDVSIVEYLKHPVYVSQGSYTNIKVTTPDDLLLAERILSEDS
Chain of AtIspF (Q9CAK8 53-231): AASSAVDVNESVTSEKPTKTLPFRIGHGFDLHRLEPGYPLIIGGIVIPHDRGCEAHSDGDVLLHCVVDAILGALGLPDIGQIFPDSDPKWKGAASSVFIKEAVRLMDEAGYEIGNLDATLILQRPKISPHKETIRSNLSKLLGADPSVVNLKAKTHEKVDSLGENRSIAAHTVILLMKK
Chain of LeIspE (P93841 89-401): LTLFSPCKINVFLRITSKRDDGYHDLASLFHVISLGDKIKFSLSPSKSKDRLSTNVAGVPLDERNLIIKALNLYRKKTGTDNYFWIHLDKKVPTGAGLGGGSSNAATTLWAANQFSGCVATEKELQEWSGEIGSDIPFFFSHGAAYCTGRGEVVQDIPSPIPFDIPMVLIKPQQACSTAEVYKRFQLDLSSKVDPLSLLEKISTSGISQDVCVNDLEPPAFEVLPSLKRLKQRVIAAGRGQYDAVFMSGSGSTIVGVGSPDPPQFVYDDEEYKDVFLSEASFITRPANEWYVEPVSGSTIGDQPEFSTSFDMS
Chain of Lycopersicon esculentum IspE (LeIspE) (P93841 89-401): as above

## c1ccc(-c2nnc(-c3cc4ccccc4[nH]3)o2)cc1 [HGN-208, 2-(1H-indol-2-yl)-5-phenyl-1,3,4-oxadiazole]
[1]
  IC50: 342 ± 42 µM
[2]
  IC50: 165 ± 47 µM
[3]
  IC50: > 1000 µM
[4]
  BT score: 0
[5]
  MS score: 0
[6]
  CX score: 0
[7]
  CP score: 0
[8]
  EC score: 0
[9]
  KP score: 0
[10]
  ML score: 0
[11]
  BC score: 0
[12]
  PA score: 0
other
  melting point: 254 to 257 °C

## Cc1nnc(-c2cc3ccccc3[nH]2)o1 [HGN-209, 2-(1H-indol-2-yl)-5-methyl-1,3,4-oxadiazole]
[13]
  MtIspD melting point change: 1.5 °C
  MtIspD melting temp: 49.5 °C
[14]
  LeIspE melting point change: −2.25 °C
  LeIspE melting temp: 47.25 °C
[15]; 0.5 mM
  Bleaching: 0
  Germination: 1
  Root Dev.: 1
[15]; 1.0 mM
  Bleaching: 0
  Germination: 2
  Root Dev.: 1
[1]; read-out: AtIspD IC50
  IC50: > 1000 µM
[2]; read-out: LeIspE IC50
  IC50: > 1000 µM
[3]; read-out: AtIspF IC50
  IC50: > 1000 µM
[4]
  BT score: 0
[5]
  MS score: 0
[6]
  CX score: 0
[7]
  CP score: 0
[8]
  EC score: 0
[9]
  KP score: 0
[10]
  ML score: 0
[11]
  BC score: 0
[12]
  PA score: 0
other
  melting point: 232 to 234 °C

## COCc1nnc(-c2cc3ccccc3[nH]2)o1 [HGN-212, 2-(1H-indol-2-yl)-5-(methoxymethyl)-1,3,4-oxadiazole]
[1]
  IC50: > 1000 µM
[2]
  IC50: > 1000 µM
[3]
  IC50: > 1000 µM
[4]
  BT score: 0
[5]
  MS score: 0
[6]
  CX score: 0
[7]
  CP score: 0
[8]
  EC score: 0
[9]
  KP score: 0
[10]
  ML score: 0
[11]
  BC score: 0
[12]
  PA score: 0
other
  melting point: 152 to 156 °C

## c1ccc(CCc2nnc(-c3cc4ccccc4[nH]3)o2)cc1 [HGN-215, 2-(1H-indol-2-yl)-5-phenethyl-1,3,4-oxadiazole]
[13]
  MtIspD melting point change: 0.8 °C
  MtIspD melting temp: 48.8 °C
[14]
  LeIspE melting point change: −2.00 °C
  LeIspE melting temp: 47.50 °C
[15]; 0.15 mM
  Bleaching: 0
  Germination: 0
  Root Dev.: 0
[15]; 0.3 mM
  Bleaching: 0
  Germination: 0
  Root Dev.: 0
[1]; read-out: AtIspD IC50
  IC50: > 1000 µM
[2]; read-out: LeIspE IC50
  IC50: 430 ± 48 µM
[3]; read-out: AtIspF IC50
  IC50: > 1000 µM
[4]
  BT score: 0
[5]
  MS score: 0
[6]
  CX score: 0
[7]
  CP score: 0
[8]
  EC score: 0
[9]
  KP score: 0
[10]
  ML score: 0
[11]
  BC score: 0
[12]
  PA score: 0
other
  melting point: 161 to 164 °C

## c1ccc2[nH]c(-c3nnc(C4CCC4)o3)cc2c1 [HGN-251, 2-cyclobutyl-5-(1H-indol-2-yl)-1,3,4-oxadiazole]
[1]
  IC50: > 1000 µM
[2]
  IC50: > 1000 µM
[3]
  IC50: > 1000 µM
[4]
  BT score: 0
[5]
  MS score: 0
[6]
  CX score: 0
[7]
  CP score: 0
[8]
  EC score: 0
[9]
  KP score: 0
[10]
  ML score: 0
[11]
  BC score: 0
[12]
  PA score: 0
other
  melting point: 169 to 173 °C

## c1ccc(OCc2nnc(-c3nc4ccccc4s3)o2)cc1 [HGN-840]
[16]
  Antibacterial Bt zone of inhibition: 0 14 17.5 millimeters
[17]; 0.1 mM
  Antibacterial Pa zone of inhibition: 0 millimeters
[17]; 0.5 mM
  Antibacterial Pa zone of inhibition: 0 millimeters
[17]; 1 mM
  Antibacterial Pa zone of inhibition: 0 millimeters
[18]; 0.1 mM
  Antibacterial Ml zone of inhibition: 0 millimeters
[18]; 0.5 mM
  Antibacterial Ml zone of inhibition: 0 millimeters
[18]; 1 mM
  Antibacterial Ml zone of inhibition: 0 millimeters
[19]; 0.1 mM
  Antibacterial Kp zone of inhibition: 0 millimeters
[19]; 0.5 mM
  Antibacterial Kp zone of inhibition: 0 millimeters
[19]; 1 mM
  Antibacterial Kp zone of inhibition: 16.5 millimeters
[20]; 0.1 mM
  Antibacterial Ec zone of inhibition: 0 millimeters
[20]; 0.5 mM
  Antibacterial Ec zone of inhibition: 0 millimeters
[20]; 1 mM
  Antibacterial Ec zone of inhibition: 0 millimeters
[21]; 0.1 mM
  Antibacterial Bc zone of inhibition: 0 millimeters
[21]; 0.5 mM
  Antibacterial Bc zone of inhibition: 0 millimeters
[21]; 1 mM
  Antibacterial Bc zone of inhibition: 14.5 millimeters
[22]; 0.1 mM
  Antibacterial Ms zone of inhibition: 0 millimeters
[22]; 0.5 mM
  Antibacterial Ms zone of inhibition: 0 millimeters
[22]; 1 mM
  Antibacterial Ms zone of inhibition: 0 millimeters
[23]; 0.1 mM
  Antibacterial Cx zone of inhibition: 0 millimeters
[23]; 0.5 mM
  Antibacterial Cx zone of inhibition: 0 millimeters
[23]; 1 mM
  Antibacterial Cx zone of inhibition: 0 millimeters
[24]; 0.1 mM
  Antibacterial Cp zone of inhibition: 0 millimeters
[24]; 0.5 mM
  Antibacterial Cp zone of inhibition: 12 millimeters
[24]; 1 mM
  Antibacterial Cp zone of inhibition: 19 millimeters
